# Results as given in ChEMBL document CHEMBL5442175, “EUbOPEN Chemogenomics Library - PDSP Secondary Binding” (2024).
# pKi: −log10 of the molar value. Counter-ions that a name gives are not always drawn.
# Experiments:
# [1] = target: T1, Alpha-1D adrenergic receptor (Homo sapiens, UniProt P25100); assay: PDSP Secondary Binding target: ADRA1D - Compounds are tested at 10 uM concentration, plate are incubated at room temperature in the dark for 90 minutes. Reaction are stopped by vacuum filtration onto 0.3% polyethyleneimine soaked filter mats using Filtermate harvester. Scintillation cocktail is then melted onto microwave-dried filters on a hot plate and the radio activity is counted in Microbia counter.
# T1 sequence (P25100 whole entry): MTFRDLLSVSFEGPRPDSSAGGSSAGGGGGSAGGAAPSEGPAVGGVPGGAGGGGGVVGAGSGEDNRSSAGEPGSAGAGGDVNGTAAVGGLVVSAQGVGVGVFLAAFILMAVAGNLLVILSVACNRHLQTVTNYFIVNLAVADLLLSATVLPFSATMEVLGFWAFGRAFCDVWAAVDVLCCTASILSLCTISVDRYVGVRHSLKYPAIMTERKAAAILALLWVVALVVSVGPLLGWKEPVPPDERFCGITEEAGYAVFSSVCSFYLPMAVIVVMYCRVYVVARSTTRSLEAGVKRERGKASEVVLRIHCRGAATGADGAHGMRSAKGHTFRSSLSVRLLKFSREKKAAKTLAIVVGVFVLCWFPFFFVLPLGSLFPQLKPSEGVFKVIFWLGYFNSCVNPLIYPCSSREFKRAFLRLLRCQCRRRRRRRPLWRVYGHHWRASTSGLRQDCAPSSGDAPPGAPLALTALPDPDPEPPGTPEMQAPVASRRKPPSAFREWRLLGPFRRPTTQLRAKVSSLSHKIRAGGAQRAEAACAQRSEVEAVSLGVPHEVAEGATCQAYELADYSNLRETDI
# [2] = target: 5-hydroxytryptamine receptor 1D (Homo sapiens, UniProt P28221); assay: PDSP Secondary Binding target: HTR1D - Compounds are tested at 10 uM concentration, plate are incubated at room temperature in the dark for 90 minutes. Reaction are stopped by vacuum filtration onto 0.3% polyethyleneimine soaked filter mats using Filtermate harvester. Scintillation cocktail is then melted onto microwave-dried filters on a hot plate and the radio activity is counted in Microbia counter.
# Chain of 5-hydroxytryptamine receptor 1D (P28221 whole entry): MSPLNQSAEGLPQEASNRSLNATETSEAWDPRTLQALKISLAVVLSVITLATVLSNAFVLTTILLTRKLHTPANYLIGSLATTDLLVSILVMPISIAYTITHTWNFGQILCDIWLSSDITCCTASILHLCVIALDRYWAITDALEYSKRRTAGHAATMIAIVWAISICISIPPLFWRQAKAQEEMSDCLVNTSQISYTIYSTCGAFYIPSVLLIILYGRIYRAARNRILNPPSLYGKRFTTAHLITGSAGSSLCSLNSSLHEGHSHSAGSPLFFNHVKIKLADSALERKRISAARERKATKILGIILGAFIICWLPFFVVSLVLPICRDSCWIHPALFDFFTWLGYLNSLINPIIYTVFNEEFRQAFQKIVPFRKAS
# [3] = target: T2, Alpha-1B adrenergic receptor (Homo sapiens, UniProt P35368); assay: PDSP Secondary Binding target: ADRA1B - Compounds are tested at 10 uM concentration, plate are incubated at room temperature in the dark for 90 minutes. Reaction are stopped by vacuum filtration onto 0.3% polyethyleneimine soaked filter mats using Filtermate harvester. Scintillation cocktail is then melted onto microwave-dried filters on a hot plate and the radio activity is counted in Microbia counter.
# T2 sequence (P35368 whole entry): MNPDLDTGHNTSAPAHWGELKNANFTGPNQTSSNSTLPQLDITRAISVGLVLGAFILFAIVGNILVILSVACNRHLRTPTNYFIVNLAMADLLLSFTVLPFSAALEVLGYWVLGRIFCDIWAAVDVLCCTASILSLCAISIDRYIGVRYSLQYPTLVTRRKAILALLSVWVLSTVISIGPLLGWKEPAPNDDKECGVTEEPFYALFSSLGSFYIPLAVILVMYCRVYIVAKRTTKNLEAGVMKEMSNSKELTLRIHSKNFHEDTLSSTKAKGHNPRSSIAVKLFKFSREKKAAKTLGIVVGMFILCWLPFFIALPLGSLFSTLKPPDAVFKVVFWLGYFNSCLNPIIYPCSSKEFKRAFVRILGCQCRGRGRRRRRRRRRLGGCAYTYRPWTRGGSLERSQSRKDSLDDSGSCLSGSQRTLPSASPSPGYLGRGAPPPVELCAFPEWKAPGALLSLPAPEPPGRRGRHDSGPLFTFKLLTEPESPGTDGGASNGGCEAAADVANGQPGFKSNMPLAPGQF
# [4] = target: T3, Alpha-2A adrenergic receptor (Homo sapiens, UniProt P08913); assay: PDSP Secondary Binding target: ADRA2A - Compounds are tested at 10 uM concentration, plate are incubated at room temperature in the dark for 90 minutes. Reaction are stopped by vacuum filtration onto 0.3% polyethyleneimine soaked filter mats using Filtermate harvester. Scintillation cocktail is then melted onto microwave-dried filters on a hot plate and the radio activity is counted in Microbia counter.
# T3 sequence (P08913 whole entry): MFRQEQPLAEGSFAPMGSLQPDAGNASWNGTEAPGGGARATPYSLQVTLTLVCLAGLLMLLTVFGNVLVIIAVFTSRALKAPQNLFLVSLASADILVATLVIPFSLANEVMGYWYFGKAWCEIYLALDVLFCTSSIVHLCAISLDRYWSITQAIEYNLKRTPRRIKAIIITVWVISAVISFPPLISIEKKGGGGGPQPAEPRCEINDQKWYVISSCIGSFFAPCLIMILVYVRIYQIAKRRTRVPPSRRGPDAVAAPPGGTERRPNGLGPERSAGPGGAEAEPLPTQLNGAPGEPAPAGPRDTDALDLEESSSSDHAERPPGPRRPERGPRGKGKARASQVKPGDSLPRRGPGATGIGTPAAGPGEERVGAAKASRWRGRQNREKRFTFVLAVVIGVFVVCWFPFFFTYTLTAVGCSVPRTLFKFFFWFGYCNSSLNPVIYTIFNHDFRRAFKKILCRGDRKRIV
# [5] = target: Sigma intracellular receptor 2 (Homo sapiens, UniProt Q5BJF2); assay: PDSP Secondary Binding target: TMEM97 - Compounds are tested at 10 uM concentration, plate are incubated at room temperature in the dark for 90 minutes. Reaction are stopped by vacuum filtration onto 0.3% polyethyleneimine soaked filter mats using Filtermate harvester. Scintillation cocktail is then melted onto microwave-dried filters on a hot plate and the radio activity is counted in Microbia counter.
# Chain of Sigma intracellular receptor 2 (Q5BJF2 whole entry): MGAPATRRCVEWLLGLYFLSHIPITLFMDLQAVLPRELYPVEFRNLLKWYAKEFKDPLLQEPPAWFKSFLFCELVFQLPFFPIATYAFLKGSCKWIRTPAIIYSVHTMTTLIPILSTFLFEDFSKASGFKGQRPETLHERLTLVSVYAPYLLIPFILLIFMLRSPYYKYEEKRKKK
# D(3) dopamine receptor = D(3) dopamine receptor (Homo sapiens, UniProt P35462); assay: PDSP Secondary Binding target: DRD3 - Compounds are tested at 10 uM concentration, plate are incubated at room temperature in the dark for 90 minutes. Reaction are stopped by vacuum filtration onto 0.3% polyethyleneimine soaked filter mats using Filtermate harvester. Scintillation cocktail is then melted onto microwave-dried filters on a hot plate and the radio activity is counted in Microbia counter.
# Chain of D(3) dopamine receptor (P35462 whole entry): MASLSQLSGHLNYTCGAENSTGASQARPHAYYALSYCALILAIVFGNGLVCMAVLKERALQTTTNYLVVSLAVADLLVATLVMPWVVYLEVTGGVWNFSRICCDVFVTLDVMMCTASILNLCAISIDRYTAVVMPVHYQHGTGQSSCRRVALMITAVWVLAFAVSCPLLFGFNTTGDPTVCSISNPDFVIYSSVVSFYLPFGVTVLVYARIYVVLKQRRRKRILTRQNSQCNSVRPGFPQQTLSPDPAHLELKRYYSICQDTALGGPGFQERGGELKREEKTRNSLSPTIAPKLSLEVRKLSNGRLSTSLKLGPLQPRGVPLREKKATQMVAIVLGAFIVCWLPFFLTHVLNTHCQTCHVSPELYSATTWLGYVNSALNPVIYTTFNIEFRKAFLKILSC
# [6] = target: T4, 5-hydroxytryptamine receptor 2C (Homo sapiens, UniProt P28335); assay: PDSP Secondary Binding target: HTR2C - Compounds are tested at 10 uM concentration, plate are incubated at room temperature in the dark for 90 minutes. Reaction are stopped by vacuum filtration onto 0.3% polyethyleneimine soaked filter mats using Filtermate harvester. Scintillation cocktail is then melted onto microwave-dried filters on a hot plate and the radio activity is counted in Microbia counter.
# T4 sequence (P28335 whole entry): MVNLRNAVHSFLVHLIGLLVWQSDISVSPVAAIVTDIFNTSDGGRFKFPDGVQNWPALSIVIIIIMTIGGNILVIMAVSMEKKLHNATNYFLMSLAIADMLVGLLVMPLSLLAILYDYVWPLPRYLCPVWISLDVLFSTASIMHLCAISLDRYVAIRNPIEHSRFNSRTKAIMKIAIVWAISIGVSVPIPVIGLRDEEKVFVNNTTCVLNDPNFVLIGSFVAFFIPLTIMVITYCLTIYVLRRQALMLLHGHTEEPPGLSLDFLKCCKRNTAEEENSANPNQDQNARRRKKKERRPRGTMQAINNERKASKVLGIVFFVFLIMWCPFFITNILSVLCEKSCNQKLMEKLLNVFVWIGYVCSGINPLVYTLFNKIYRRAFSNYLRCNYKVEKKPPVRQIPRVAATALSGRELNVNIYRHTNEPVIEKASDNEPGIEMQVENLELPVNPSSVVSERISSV
# [7] = target: T5, Alpha-2B adrenergic receptor (Homo sapiens, UniProt P18089); assay: PDSP Secondary Binding target: ADRA2B - Compounds are tested at 10 uM concentration, plate are incubated at room temperature in the dark for 90 minutes. Reaction are stopped by vacuum filtration onto 0.3% polyethyleneimine soaked filter mats using Filtermate harvester. Scintillation cocktail is then melted onto microwave-dried filters on a hot plate and the radio activity is counted in Microbia counter.
# T5 sequence (P18089 whole entry): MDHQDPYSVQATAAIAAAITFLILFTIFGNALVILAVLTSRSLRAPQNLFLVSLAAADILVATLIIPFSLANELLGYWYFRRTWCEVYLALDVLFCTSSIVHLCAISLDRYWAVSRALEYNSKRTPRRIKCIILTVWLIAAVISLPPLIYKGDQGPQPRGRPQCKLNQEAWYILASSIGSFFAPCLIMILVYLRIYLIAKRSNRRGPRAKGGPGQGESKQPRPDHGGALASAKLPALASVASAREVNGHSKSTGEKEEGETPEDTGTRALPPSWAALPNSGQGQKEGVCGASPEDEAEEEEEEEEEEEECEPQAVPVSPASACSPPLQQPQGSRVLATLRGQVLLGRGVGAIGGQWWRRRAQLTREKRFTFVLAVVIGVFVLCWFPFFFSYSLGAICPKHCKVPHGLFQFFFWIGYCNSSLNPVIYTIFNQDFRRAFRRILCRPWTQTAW
# [8] = target: Sodium-dependent noradrenaline transporter (Homo sapiens, UniProt P23975); assay: PDSP Secondary Binding target: SLC6A2 - Compounds are tested at 10 uM concentration, plate are incubated at room temperature in the dark for 90 minutes. Reaction are stopped by vacuum filtration onto 0.3% polyethyleneimine soaked filter mats using Filtermate harvester. Scintillation cocktail is then melted onto microwave-dried filters on a hot plate and the radio activity is counted in Microbia counter.
# Chain of Sodium-dependent noradrenaline transporter (P23975 whole entry): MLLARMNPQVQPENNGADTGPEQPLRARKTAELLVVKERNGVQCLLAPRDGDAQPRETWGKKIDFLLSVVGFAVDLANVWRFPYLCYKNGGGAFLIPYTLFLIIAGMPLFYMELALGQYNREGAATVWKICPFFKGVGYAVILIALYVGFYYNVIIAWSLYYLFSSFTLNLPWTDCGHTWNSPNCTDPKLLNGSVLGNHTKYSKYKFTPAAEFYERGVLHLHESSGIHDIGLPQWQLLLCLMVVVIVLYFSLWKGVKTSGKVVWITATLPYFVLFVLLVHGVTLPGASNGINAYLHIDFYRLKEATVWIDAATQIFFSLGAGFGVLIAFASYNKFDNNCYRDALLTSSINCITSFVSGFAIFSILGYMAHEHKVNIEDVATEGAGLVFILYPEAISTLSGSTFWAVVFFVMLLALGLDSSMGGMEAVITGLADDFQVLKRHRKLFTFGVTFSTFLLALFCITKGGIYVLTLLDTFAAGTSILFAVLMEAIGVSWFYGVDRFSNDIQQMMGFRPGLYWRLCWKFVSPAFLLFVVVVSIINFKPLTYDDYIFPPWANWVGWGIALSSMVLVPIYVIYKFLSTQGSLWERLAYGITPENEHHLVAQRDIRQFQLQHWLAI
# [9] = target: Sodium-dependent serotonin transporter (Homo sapiens, UniProt P31645); assay: PDSP Secondary Binding target: SLC6A4 - Compounds are tested at 10 uM concentration, plate are incubated at room temperature in the dark for 90 minutes. Reaction are stopped by vacuum filtration onto 0.3% polyethyleneimine soaked filter mats using Filtermate harvester. Scintillation cocktail is then melted onto microwave-dried filters on a hot plate and the radio activity is counted in Microbia counter.
# Chain of Sodium-dependent serotonin transporter (P31645 whole entry): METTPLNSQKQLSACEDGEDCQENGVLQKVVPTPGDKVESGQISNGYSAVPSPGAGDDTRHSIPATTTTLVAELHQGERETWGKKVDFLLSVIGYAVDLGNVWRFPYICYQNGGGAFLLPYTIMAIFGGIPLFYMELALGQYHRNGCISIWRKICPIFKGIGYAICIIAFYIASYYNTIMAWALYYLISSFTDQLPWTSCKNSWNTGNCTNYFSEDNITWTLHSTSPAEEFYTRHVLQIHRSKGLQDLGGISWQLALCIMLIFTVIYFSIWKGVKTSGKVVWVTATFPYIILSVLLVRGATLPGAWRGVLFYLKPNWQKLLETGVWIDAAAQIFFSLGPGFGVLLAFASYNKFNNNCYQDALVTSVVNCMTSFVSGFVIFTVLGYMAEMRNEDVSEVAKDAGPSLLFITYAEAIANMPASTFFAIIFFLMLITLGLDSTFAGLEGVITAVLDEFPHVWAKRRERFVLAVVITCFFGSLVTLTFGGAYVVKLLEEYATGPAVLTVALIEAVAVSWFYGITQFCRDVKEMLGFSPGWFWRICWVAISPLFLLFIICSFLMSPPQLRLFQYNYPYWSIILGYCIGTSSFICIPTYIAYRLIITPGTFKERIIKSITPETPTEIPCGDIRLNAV
# [10] = target: Sigma non-opioid intracellular receptor 1 (Homo sapiens, UniProt Q99720); assay: PDSP Secondary Binding target: SIGMAR1 - Compounds are tested at 10 uM concentration, plate are incubated at room temperature in the dark for 90 minutes. Reaction are stopped by vacuum filtration onto 0.3% polyethyleneimine soaked filter mats using Filtermate harvester. Scintillation cocktail is then melted onto microwave-dried filters on a hot plate and the radio activity is counted in Microbia counter.
# Chain of Sigma non-opioid intracellular receptor 1 (Q99720 whole entry): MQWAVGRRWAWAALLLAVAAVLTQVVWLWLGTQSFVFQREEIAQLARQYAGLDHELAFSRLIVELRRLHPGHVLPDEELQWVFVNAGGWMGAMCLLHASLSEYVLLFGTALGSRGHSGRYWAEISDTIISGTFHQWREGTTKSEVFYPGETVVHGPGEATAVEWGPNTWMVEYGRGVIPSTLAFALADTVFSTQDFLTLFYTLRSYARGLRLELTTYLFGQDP
# [11] = target: Kappa-type opioid receptor (Homo sapiens, UniProt P41145); assay: PDSP Secondary Binding target: OPRK1 - Compounds are tested at 10 uM concentration, plate are incubated at room temperature in the dark for 90 minutes. Reaction are stopped by vacuum filtration onto 0.3% polyethyleneimine soaked filter mats using Filtermate harvester. Scintillation cocktail is then melted onto microwave-dried filters on a hot plate and the radio activity is counted in Microbia counter.
# Chain of Kappa-type opioid receptor (P41145 whole entry): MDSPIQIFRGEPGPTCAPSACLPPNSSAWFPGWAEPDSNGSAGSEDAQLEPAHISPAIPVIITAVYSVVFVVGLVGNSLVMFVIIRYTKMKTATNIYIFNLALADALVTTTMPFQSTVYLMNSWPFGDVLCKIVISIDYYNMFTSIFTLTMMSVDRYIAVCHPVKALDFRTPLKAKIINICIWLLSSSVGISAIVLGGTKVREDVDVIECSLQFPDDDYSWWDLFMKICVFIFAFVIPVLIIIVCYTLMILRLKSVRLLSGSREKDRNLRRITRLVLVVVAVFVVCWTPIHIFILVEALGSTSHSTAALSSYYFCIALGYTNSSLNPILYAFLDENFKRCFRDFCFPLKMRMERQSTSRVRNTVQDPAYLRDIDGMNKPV
# [12] = target: 5-hydroxytryptamine receptor 1B (Homo sapiens, UniProt P28222); assay: PDSP Secondary Binding target: HTR1B - Compounds are tested at 10 uM concentration, plate are incubated at room temperature in the dark for 90 minutes. Reaction are stopped by vacuum filtration onto 0.3% polyethyleneimine soaked filter mats using Filtermate harvester. Scintillation cocktail is then melted onto microwave-dried filters on a hot plate and the radio activity is counted in Microbia counter.
# Chain of 5-hydroxytryptamine receptor 1B (P28222 whole entry): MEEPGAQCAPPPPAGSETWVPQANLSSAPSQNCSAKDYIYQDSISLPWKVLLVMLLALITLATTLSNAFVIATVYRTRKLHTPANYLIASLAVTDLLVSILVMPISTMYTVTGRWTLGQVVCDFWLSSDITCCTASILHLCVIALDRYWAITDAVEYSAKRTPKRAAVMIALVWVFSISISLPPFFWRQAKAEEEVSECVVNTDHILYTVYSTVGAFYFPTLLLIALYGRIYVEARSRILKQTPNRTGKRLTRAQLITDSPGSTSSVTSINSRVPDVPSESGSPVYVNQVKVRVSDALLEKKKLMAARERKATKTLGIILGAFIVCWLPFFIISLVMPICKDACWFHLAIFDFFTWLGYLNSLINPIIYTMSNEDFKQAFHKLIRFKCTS
# [13] = target: 5-hydroxytryptamine receptor 6 (Homo sapiens, UniProt P50406); assay: PDSP Secondary Binding target: HTR6 - Compounds are tested at 10 uM concentration, plate are incubated at room temperature in the dark for 90 minutes. Reaction are stopped by vacuum filtration onto 0.3% polyethyleneimine soaked filter mats using Filtermate harvester. Scintillation cocktail is then melted onto microwave-dried filters on a hot plate and the radio activity is counted in Microbia counter.
# Chain of 5-hydroxytryptamine receptor 6 (P50406 whole entry): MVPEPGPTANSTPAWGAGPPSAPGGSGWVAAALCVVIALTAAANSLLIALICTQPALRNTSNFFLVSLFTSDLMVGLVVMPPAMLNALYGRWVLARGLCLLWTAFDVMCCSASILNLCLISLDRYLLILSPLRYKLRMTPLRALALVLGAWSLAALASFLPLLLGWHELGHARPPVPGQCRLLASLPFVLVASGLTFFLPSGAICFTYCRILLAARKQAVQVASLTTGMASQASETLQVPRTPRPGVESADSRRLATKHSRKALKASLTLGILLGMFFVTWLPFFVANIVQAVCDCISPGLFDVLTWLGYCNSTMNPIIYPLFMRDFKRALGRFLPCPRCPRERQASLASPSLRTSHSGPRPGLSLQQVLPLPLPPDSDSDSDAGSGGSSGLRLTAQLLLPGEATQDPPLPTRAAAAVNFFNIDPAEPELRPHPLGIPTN
# D(4) dopamine receptor = target: T6, D(4) dopamine receptor (Homo sapiens, UniProt P21917); assay: PDSP Secondary Binding target: DRD4 - Compounds are tested at 10 uM concentration, plate are incubated at room temperature in the dark for 90 minutes. Reaction are stopped by vacuum filtration onto 0.3% polyethyleneimine soaked filter mats using Filtermate harvester. Scintillation cocktail is then melted onto microwave-dried filters on a hot plate and the radio activity is counted in Microbia counter.
# T6 sequence (P21917 whole entry): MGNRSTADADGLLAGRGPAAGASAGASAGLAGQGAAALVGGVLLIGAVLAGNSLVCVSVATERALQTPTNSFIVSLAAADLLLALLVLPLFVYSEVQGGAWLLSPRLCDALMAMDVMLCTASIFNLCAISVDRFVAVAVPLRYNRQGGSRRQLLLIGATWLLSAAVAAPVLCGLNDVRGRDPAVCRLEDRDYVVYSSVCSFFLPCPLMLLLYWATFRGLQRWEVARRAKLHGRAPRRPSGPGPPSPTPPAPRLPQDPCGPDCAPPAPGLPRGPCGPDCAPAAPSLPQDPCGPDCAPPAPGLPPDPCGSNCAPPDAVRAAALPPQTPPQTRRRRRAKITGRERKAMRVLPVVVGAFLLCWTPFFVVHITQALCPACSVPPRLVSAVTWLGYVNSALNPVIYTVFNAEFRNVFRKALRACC
# [14] = target: 5-hydroxytryptamine receptor 7 (Homo sapiens, UniProt P34969); assay: PDSP Secondary Binding target: HTR7 - Compounds are tested at 10 uM concentration, plate are incubated at room temperature in the dark for 90 minutes. Reaction are stopped by vacuum filtration onto 0.3% polyethyleneimine soaked filter mats using Filtermate harvester. Scintillation cocktail is then melted onto microwave-dried filters on a hot plate and the radio activity is counted in Microbia counter.
# Chain of 5-hydroxytryptamine receptor 7 (P34969 whole entry): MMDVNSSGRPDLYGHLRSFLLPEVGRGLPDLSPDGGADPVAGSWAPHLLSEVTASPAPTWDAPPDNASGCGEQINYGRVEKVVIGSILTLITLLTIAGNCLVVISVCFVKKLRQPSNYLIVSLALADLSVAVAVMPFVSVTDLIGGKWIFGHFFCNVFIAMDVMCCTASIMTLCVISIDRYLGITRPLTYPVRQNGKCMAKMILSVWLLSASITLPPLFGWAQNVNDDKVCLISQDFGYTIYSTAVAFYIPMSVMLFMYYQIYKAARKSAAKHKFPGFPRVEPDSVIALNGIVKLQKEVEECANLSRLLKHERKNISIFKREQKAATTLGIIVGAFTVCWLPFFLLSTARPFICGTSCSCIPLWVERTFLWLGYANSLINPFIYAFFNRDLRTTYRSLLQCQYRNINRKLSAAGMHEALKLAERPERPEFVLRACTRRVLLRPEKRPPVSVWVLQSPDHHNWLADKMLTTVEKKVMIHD
smiles,measurement,setting,value
CCCCCCCCCCCCCCCCOC[C@H](COP(=O)([O-])OCC[N+](C)(C)C)OC(C)=O,pKi,[1],5.69
same,pKi,[2],5.07
same,pKi,[3],5.35
same,pKi,[4],< 5.00
same,pKi,[5],5.74
same,pKi,D(3) dopamine receptor,5.75
same,pKi,[6],5.51
same,pKi,[7],< 5.00
N[C@H](C(=O)O)c1ccc(C(=O)O)c(C(=O)O)c1,pKi,D(3) dopamine receptor,5.69
same,pKi,[8],5.12
same,pKi,[9],5.12
N#Cc1c(N)nc(SCC(N)=O)c(C#N)c1-c1ccc(OCC2CC2)cc1,pKi,[10],6.00
same,pKi,[11],6.39
same,pKi,[12],5.18
COc1ccc(S(=O)(=O)c2cc(OC)ccc2S(=O)(=O)c2ccc([C@H](C)NS(C)(=O)=O)cc2)cc1,pKi,[13],6.55
same,pKi,D(4) dopamine receptor,5.94
same,pKi,D(3) dopamine receptor,6.25
CC(C)NCC(O)COc1cccc2ccccc12 (stereo unspecified) [PROPRANOLOL HYDROCHLORIDE],pKi,[13],6.27
same,pKi,[10],7.02
same,pKi,[5],6.45
Clc1cccc(Cl)c1N=C1NCCN1 [CLONIDINE HYDROCHLORIDE],pKi,[1],5.70
same,pKi,[3],5.58
same,pKi,[14],6.06
same,pKi,[5],5.56
same,pKi,[6],5.16
C[C@H](CO)Nc1nc(SCc2cccc(Cl)c2F)nc2[nH]c(=O)sc12,pKi,[12],5.08
same,pKi,[8],< 5.00
Brc1c(NC2=NCCN2)ccc2nccnc12,pKi,[1],5.68
same,pKi,[3],5.38
same,pKi,[14],5.96
same,pKi,[5],5.82
